Laboratory results as given in patent publication US20230365541A1, “INHIBITOR OF ENHANCER OF ZESTE HOMOLOGUE 2, AND USE THEREOF” (HAISCO PHARMACEUTICALS PTE. LTD., priority 2020, published 2023).

How the values were obtained:
SU-DHL-6 cells = test: SU-DHL-6 cell proliferation test; assay type: cell-based, human; settings: incubated for 14 days
Description: SU-DHL-6 cells are human B-cell lymphoma cell lines purchased from ATCC and cultured under the following conditions: RPMI-1640+10% FBS+1% double antibody in a 37° C., 5% CO2 incubator. The cells were plated in a 12-well plate, with a cell concentration of 1×10^5 cells/mL. After the cells were plated, the compounds at different concentrations were added and cultured in a 37° C., 5% CO2 incubator. The cells were counted every 3-4 days (Countstar automated cell counter), centrifuged to remove the supernatant, re-diluted to 1×10^5 cells/mL and plated, and then the compounds at different concentrations were further added. After the mixture was incubated for 14 days and the cells were counted, the test was terminated, and the IC50 values were calculated by using the Origen9.2 software.

EZH2 = EZH2 (Homo sapiens (Human), UniProt Q15910); test: Test method for EZH2 enzyme activity; assay type: biochemical; settings: H3K27(21-44) and [3H]-SAM
Chain of EZH2 (Q15910 other isoform, or with tags, fused parts or gaps isoform Q15910-2): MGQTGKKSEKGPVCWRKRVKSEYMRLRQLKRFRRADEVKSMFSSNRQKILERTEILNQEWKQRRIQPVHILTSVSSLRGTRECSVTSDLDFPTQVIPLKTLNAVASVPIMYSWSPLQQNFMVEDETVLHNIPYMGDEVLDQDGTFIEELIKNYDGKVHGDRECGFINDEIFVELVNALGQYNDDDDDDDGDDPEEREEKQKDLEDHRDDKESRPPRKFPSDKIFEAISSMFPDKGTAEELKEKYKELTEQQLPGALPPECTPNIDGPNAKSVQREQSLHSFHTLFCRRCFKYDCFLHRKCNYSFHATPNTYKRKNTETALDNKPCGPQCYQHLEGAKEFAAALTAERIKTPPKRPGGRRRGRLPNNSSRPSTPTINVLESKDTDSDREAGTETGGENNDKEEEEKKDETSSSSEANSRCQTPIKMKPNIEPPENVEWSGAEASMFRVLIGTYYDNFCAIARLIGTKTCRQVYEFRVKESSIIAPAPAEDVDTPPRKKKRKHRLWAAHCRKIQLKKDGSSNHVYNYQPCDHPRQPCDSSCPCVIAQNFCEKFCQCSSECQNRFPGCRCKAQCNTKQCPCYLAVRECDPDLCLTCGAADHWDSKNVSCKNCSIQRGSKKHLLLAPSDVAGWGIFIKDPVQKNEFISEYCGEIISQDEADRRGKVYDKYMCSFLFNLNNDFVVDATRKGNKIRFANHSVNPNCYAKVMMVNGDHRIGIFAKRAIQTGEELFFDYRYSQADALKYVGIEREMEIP
Chain of EZH2 (O75530 2-441 partner): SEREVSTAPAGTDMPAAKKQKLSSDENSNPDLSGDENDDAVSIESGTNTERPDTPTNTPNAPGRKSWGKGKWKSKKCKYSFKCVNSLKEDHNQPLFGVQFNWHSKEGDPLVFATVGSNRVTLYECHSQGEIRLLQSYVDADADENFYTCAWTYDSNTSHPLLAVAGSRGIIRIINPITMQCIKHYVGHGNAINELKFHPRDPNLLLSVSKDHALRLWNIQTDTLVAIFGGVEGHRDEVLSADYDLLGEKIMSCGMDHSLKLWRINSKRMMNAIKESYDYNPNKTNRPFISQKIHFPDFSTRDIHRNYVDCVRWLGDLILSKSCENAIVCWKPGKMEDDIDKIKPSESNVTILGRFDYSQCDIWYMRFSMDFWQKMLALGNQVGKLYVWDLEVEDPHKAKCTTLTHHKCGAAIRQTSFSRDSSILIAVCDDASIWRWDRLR
Chain of EZH2 (Q15022 2-739 partner): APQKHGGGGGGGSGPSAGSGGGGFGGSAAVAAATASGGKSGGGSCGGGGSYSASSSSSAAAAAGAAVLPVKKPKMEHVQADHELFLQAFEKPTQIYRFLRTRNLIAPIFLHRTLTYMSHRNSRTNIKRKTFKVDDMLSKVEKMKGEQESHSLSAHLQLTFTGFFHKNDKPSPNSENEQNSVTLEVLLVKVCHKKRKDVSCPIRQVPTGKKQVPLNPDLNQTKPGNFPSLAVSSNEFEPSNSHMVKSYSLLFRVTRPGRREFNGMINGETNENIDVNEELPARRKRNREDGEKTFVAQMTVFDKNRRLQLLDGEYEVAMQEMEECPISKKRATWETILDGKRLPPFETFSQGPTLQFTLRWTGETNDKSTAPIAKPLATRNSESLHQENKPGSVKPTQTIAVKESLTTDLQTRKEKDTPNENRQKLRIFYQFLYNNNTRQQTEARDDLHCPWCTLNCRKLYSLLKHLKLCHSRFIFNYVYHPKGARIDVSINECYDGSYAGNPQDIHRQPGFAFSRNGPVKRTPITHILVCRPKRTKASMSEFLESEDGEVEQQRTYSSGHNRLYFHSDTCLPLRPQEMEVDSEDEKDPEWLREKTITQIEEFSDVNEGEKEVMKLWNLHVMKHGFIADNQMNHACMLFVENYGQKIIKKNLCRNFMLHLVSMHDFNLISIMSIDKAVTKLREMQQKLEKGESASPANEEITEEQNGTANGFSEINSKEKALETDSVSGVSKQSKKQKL
Chain of EZH2 (Q09028 2-425 partner): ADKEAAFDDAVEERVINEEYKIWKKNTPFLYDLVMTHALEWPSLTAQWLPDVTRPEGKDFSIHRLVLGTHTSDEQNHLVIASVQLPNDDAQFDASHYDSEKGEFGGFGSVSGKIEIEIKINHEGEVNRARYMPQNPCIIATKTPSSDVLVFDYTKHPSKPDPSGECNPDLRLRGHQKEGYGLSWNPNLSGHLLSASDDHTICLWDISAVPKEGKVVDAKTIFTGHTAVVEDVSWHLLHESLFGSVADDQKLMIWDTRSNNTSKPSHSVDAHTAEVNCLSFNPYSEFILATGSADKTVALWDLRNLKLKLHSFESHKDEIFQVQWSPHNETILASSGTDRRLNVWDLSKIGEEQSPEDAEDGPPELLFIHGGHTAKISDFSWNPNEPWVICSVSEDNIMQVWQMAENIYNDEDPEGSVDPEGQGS
Chain of EZH2 (Q6ZN18 whole entry partner): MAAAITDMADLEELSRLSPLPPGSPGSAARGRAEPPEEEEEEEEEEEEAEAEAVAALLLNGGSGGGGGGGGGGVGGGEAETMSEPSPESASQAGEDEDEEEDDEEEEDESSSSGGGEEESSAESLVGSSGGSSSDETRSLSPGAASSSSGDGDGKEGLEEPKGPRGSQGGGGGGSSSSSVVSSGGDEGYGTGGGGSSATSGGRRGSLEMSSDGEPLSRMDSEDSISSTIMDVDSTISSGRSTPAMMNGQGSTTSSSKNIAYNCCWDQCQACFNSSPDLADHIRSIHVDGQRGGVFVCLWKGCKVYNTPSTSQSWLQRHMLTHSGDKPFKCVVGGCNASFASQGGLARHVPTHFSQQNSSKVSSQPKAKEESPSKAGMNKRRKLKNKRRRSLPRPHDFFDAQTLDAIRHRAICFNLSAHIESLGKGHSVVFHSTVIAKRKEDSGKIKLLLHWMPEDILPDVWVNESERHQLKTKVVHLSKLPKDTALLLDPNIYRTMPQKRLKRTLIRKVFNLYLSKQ
Summary of the method: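 EZH2 (3 nM final) preincubated 15 min with compound in Tris-HCl pH 9.0 buffer, then H3K27(21-44) peptide and [3H]-SAM added (mixture at 200 nM and 100 nM) for 60 min at room temperature. Reaction quenched with cold SAM; flashplate scintillation read, inhibition normalized to controls and IC50 fitted.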

[1] = Pharmacokinetic experiment in mice (single intragastric dose, 20 mg/kg); settings: male, ICR, mouse, plasma, po
Description: (§1) Experimental objective: a single dose of test compounds was administered to ICR mice intragastrically, and the concentrations of the test compounds in plasma of the mice were measured to evaluate pharmacokinetic characteristics of the test compounds in the mice.
(§2) Experimental animal: male ICR mice, about 20-25 g, 6-8 weeks old, 3 mice/compound, purchased from Chengdu Dossy Experimental Animals Co., Ltd.
(§3) Experimental method: on the day of the experiment, three ICR mice were randomly grouped according to their body weight. The animals were fasted with water available for 12 to 14 hours one day before the administration, and were fed 4 hours after the administration.
(§4) Before and after the administration, 0.03 mL of blood was taken from the orbit of the animals under isoflurane anesthesia, and placed in an EDTAK2 centrifuge tube. Centrifugation was carried out at 5000 rpm at 4° C. for 10 min, and the plasma was collected.
(§5) Time points for sample collection comprise 0 (before the administration), 15 min, 30 min, 1 h, 2 h, 4 h, 6 h, 8 h and 24 h.
(§6) Before analysis and detection, all samples were stored at −80° C.

[2] = Pharmacokinetic experiment in mice (intravenous 5 mg/kg or intragastric 30 mg/kg); assay type: in vivo; settings: for AUC: read-out: AUC; for C0: read-out: C0; for bioavailability: PO 30 mg/kg vs IV 5 mg/kg
Description: The administration was performed according to table 5.
The concentrations of the compounds in EDTA-K2 anticoagulant plasma were determined by the LC-MS/MS method. The linear range of the standard curve of the compounds is 2-2000 ng/mL. After subjected to precipitating proteins with acetonitrile, the samples were analyzed by LC-MS/MS. The standard curve was subjected to a regression calculation using the weighted least square method (W=1/X^2), and quantified by calculating the ratio of test compound peak area to internal standard peak area.
• (1) except to the blank sample, 400 μL of internal standard working solution (Verapamil internal standard concentration in precipitant acetonitrile is 10.0 ng/mL) was added to a 1.5 mL centrifuge tube containing 30 μL of standard curve samples and quality control samples; • 200 μL of internal standard working solution (Verapamil internal standard concentration in precipitant acetonitrile is 10.0 ng/mL) was added to a 1.5 mL centrifuge tube containing 15 μL of unknown samples; • and 400 μL of acetonitrile was added to the blank sample; • (2) the mixture was mixed evenly for about 1 min in a vortex mixer; • (3) centrifugation was carried out at 10000 rpm at 4C for 10 mi; • (4) 175 μL of the supernatant was transferred to a new 96-well polypropylene plate, and then the plate was sealed and placed in a 10° C. sample tray for injection.

[3] = mouse, in vivo, po, 20 mg/kg
Description: as §1, §2, §3, §4, §5, §6

[4] = male, ICR, mouse, plasma, iv, 5 mg/kg, IV 5 mg/kg
[5] = male, ICR, mouse, plasma, po, 30 mg/kg, PO 30 mg/kg
[6] = male, ICR, mouse, plasma, po, 30 mg/kg

Compound: CSc1cc(C)[nH]c(=O)c1CNC(=O)c1cc(Cl)c2c(c1C)OC(C)([C@H]1CC[C@@H](N[C@H]3C[C@H](F)C3)CC1)O2 (single isomer, unassigned) [Compound 34, isomer 1, 7-chloro-2-(4-((trans-3-fluorocyclobutyl)amino)cyclohexyl)-2,4-dimethyl-N-((6-methyl-4-(methylthio)-2-oxo-1,2-dihydropyridin-3-yl)methyl)benzo[d][1,3]dioxole-5-carboxamide]
- IC50 (SU-DHL-6 cells; Homo sapiens, SU-DHL-6, 336 h): 33 nM
- IC50 (EZH2): 0.57 nM
- AUC [1]: 1.35 µg·h/mL
- Cmax [1]: 0.598 µg/mL
- half-life [1]: 3.37 h

Compound: [2H]C([2H])(NC(=O)c1cc(Cl)c2c(c1C)OC(C)([C@H]1CC[C@@H](NC3CC(F)(F)C3)CC1)O2)c1c(SC)cc(C)[nH]c1=O (single isomer, unassigned) [Compound 44, isomer 1, 7-chloro-2-(4-((3,3-difluorocyclobutyl)amino)cyclohexyl)-2,4-dimethyl-N-((6-methyl-4-(methylthio)-2-oxo-1,2-dihydropyridin-3-yl)methyl-d2)benzo[d][1,3]dioxole-5-carboxamide]
- IC50 (SU-DHL-6 cells; Homo sapiens, SU-DHL-6, 336 h): 24 nM
- IC50 (EZH2): 0.48 nM
- T1/2 ([2]; ICR mice, IV 5 mg/kg, listed as Compound 44, Isomer 1): 0.427 h
- Cmax ([2]; ICR mice, PO 30 mg/kg, listed as Compound 44, Isomer 1): 0.971 µg/mL
- AUC [2, 4]: 0.574 µg·h/mL
- C0 [2, 4]: 2.34 µg/mL
- half-life [2, 5]: 1.27 h
- bioavailability [2, 6]: 44.3%
- AUC [2, 5]: 1.53 µg·h/mL

Compound: CSc1cc(C)[nH]c(=O)c1CNC(=O)c1cc(Cl)c2c(c1C)OC(C)(C1CCN(CC3CC(F)(F)C3)CC1)O2 (single isomer, unassigned; isomer 1) [Compound 10, isomer 1, 7-chloro-2-(1-((3,3-difluorocyclobutyl)methyl)piperidin-4-yl)-2,4-dimethyl-N-((6-methyl-4-(methylthio)-2-oxo-1,2-dihydropyridin-3-yl)methyl)benzo[d][1,3]dioxole-5-carboxamide]
- Conclusion on pharmacokinetics [3]: Conclusion: the compounds of the present disclosure, especially isomer 1 of compound 10 and isomer 1 of compound 34, have good pharmacokinetics with long half-life and short time to reach the highest concentration.
- Curve area AUC [3]: 1097 h · ng · mL − 1
- Half-life T1/2 [3]: 1.72 h
- Plasma drug concentration Cmax [3]: 1.238 µg/mL
- Time to reach peak Tmax [3]: 0.25

Compound: CSc1cc(C)[nH]c(=O)c1CNC(=O)c1cc(Cl)c2c(c1C)OC(C)([C@H]1CC[C@H](C(=O)N3CC(F)(F)C3)CC1)O2 (single isomer, unassigned; isomer 1) [Compound 47, isomer 1, 7-chloro-2-(4-(3,3-difluoroazetidine-1-carbonyl)cyclohexyl)-2,4-dimethyl-N-(di-deuterated(6-methyl-4-(methylthio)-2-oxo-1,2-dihydropyridin-3-yl)di-deuterated-methyl)benzo[d][1,3]dioxole-5-carboxamide]
- IC50 (SU-DHL-6 cells): 26.3 nM
- IC50 (EZH2): 0.34 nM

Compound: CNS(=O)(=O)N1CCC(C2(C)Oc3c(Cl)cc(C(=O)NCc4c(SC)cc(C)[nH]c4=O)c(C)c3O2)CC1 (stereo not shown) [Compound 26, 7-chloro-2,4-dimethyl-N-((6-methyl-4-(methylthio)-2-oxo-1,2-dihydropyridin-3-yl)methyl)-2-(1-(N-methylsulfamoyl)piperidin-4-yl)benzo[d][1,3]dioxole-5-carboxamide]
- IC50 (SU-DHL-6 cells; Homo sapiens, SU-DHL-6, 336 h): 63.2 nM
- IC50 (EZH2): 0.52 nM

Compound: [2H]C([2H])(NC(=O)c1cc(Cl)c2c(c1C)OC(C)(C1CCN(CC3CC3)CC1)O2)c1c(SC)cc(C)[nH]c1=O (stereo not shown) [Compound 27, 7-chloro-2-(1-(cyclopropylmethyl)piperidin-4-yl)-2,4-dimethyl-N-((6-methyl-4-(methylthio)-2-oxo-1,2-dihydropyridin-3-yl)methyl-d2)benzo[d][1,3]dioxole-5-carboxamide]
- IC50 (SU-DHL-6 cells; Homo sapiens, SU-DHL-6, 336 h): 93.7 nM
- IC50 (EZH2): 0.52 nM
- half-life [2, 4]: 1.42 h
- AUC [2, 4]: 0.839 µg·h/mL
- C0 [2, 4]: 1.97 µg/mL
- half-life [2, 5]: 0.934 h
- bioavailability [2, 6]: 52.7%
- AUC [2, 5]: 2.65 µg·h/mL
- Cmax ([2]; male, ICR, mouse, plasma, po, 30 mg/kg, PO 30 mg/kg, read-out: Cmax): 0.865 µg/mL
- Tmax ([2]; male, ICR, mouse, plasma, po, 30 mg/kg, PO 30 mg/kg, read-out: Tmax): 2 h

Compound: COC(=O)N1CCC(C2(C)Oc3c(Cl)cc(C(=O)NCc4c(SC)cc(C)[nH]c4=O)c(C)c3O2)CC1 (stereo not shown) [Compound 29, methyl-4-(7-chloro-2,4-dimethyl-5-(((6-methyl-4-(methylthio)-2-oxo-1,2-dihydropyridin-3-yl)methyl)carbamoyl)benzo[d][1,3]dioxol-2-yl)piperidine-1-carboxylate]
- IC50 (SU-DHL-6 cells; Homo sapiens, SU-DHL-6, 336 h): 77.9 nM
- IC50 (EZH2): 0.44 nM

Compound: CSc1cc(C)[nH]c(=O)c1CNC(=O)c1cc(Cl)c2c(c1C)OC(C)(C1CCN(CC3(C#N)CC3)CC1)O2 (stereo not shown) [Compound 30, 7-chloro-2-(1-((1-cyanocyclopropyl)methyl)piperidin-4-yl)-2,4-dimethyl-N-((6-methyl-4-(methylthio)-2-oxo-1,2-dihydropyridin-3-yl)methyl)benzo[d][1,3]dioxole-5-carboxamide]
- IC50 (SU-DHL-6 cells; Homo sapiens, SU-DHL-6, 336 h): 22.6 nM
- IC50 (EZH2): 0.66 nM

Compound: CSc1cc(C)[nH]c(=O)c1CNC(=O)c1cc(Cl)c2c(c1C)OC(C)(C1CCN(CC3CC3(F)F)CC1)O2 (stereo not shown) [Compound 31, 7-chloro-2-(1-((2,2-difluorocyclopropyl)methyl)piperidin-4-yl)-2,4-dimethyl-N-((6-methyl-4-(methylthio)-2-oxo-1,2-dihydropyridin-3-yl)methyl)benzo[d][1,3]dioxole-5-carboxamide]
- IC50 (SU-DHL-6 cells; Homo sapiens, SU-DHL-6, 336 h): 68 nM
- IC50 (EZH2): 0.52 nM

Compound: CSc1cc(C)[nH]c(=O)c1CNC(=O)c1cc(Cl)c2c(c1C)OC(C)(C1CCN(CC3CCC3)CC1)O2 (stereo not shown) [Compound 37, 7-chloro-2-(1-(cyclobutylmethyl)piperidin-4-yl)-2,4-dimethyl-N-((6-methyl-4-(methylthio)-2-oxo-1,2-dihydropyridin-3-yl)methyl)benzo[d][1,3]dioxole-5-carboxamide]
- IC50 (SU-DHL-6 cells; Homo sapiens, SU-DHL-6, 336 h): 32.1 nM
- IC50 (EZH2): 0.44 nM

Compound: CSc1cc(C)[nH]c(=O)c1CNC(=O)c1cc(Cl)c2c(c1C)OC(C)(C1CCN(CC3COC3)CC1)O2 (stereo not shown) [Compound 38, 7-chloro-2,4-dimethyl-N-((6-methyl-4-(methylthio)-2-oxo-1,2-dihydropyridin-3-yl)methyl)-2-(1-(oxetan-3-ylmethyl)piperidin-4-yl)benzo[d][1,3]dioxole-5-carboxamide]
- IC50 (SU-DHL-6 cells; Homo sapiens, SU-DHL-6, 336 h): 14.1 nM
- IC50 (EZH2): 0.7 nM
